Source: the NIST ThermoML archive (doi:10.1016/j.fluid.2005.03.030)

Assay: xn = mol fraction of the nth substance listed
Details: Liquid, Falling body viscometer

COCCOCCOCCOCCOC [2,5,8,11,14-pentaoxapentadecane] + FCC(F)(F)F
viscosity [mPa·s]
Details | 10000 kPa | 20000 kPa | 30000 kPa | 40000 kPa | 50000 kPa | 60000 kPa | 70000 kPa | 80000 kPa | 90000 kPa | 100000 kPa
293.15 K, x2 = 0.2769 | 3.132 | 3.378 | 3.669 | 3.992 | 4.341 | 4.71 | 5.095 | 5.495 | 5.907 | 6.329
293.15 K, x2 = 0.4433 | 2.335 | 2.537 | 2.765 | 3.014 | 3.282 | 3.568 | 3.871 | 4.191 | 4.527 | 4.877
293.15 K, x2 = 0.6333 | 1.514 | 1.679 | 1.851 | 2.031 | 2.219 | 2.414 | 2.617 | 2.827 | 3.045 | 3.269
293.15 K, x2 = 0.8797 | 0.557 | 0.613 | 0.671 | 0.733 | 0.796 | 0.863 | 0.932 | 1.003 | 1.077 | 1.154
313.15 K, x2 = 0.2769 | 2.001 | 2.197 | 2.395 | 2.601 | 2.816 | 3.043 | 3.282 | 3.535 | 3.803 | 4.088
313.15 K, x2 = 0.4433 | 1.527 | 1.674 | 1.824 | 1.978 | 2.14 | 2.31 | 2.49 | 2.68 | 2.881 | 3.094
313.15 K, x2 = 0.6333 | 1.046 | 1.151 | 1.26 | 1.374 | 1.493 | 1.616 | 1.745 | 1.878 | 2.016 | 2.159
313.15 K, x2 = 0.8797 | 0.412 | 0.46 | 0.506 | 0.553 | 0.6 | 0.647 | 0.695 | 0.744 | 0.794 | 0.845
333.15 K, x2 = 0.2769 | 1.406 | 1.533 | 1.664 | 1.8 | 1.941 | – | – | – | – | –
333.15 K, x2 = 0.4433 | 1.097 | 1.195 | 1.297 | 1.402 | 1.512 | – | – | – | – | –
333.15 K, x2 = 0.6333 | 0.774 | 0.845 | 0.922 | 1.003 | 1.087 | – | – | – | – | –
333.15 K, x2 = 0.8797 | 0.321 | 0.364 | 0.405 | 0.444 | 0.483 | – | – | – | – | –
